ChEMBL document CHEMBL1201862, “PubChem BioAssay data set” (2004)
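A five-concentration, 48-hour dose response in 96-well plates underlies each endpoint, interpolated linearly between surrounding concentrations. GI50 = concentration required for 50% inhibition of growth.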 Calls of active or inactive are those of the source. No stated cut-off is given here; in the data, active = GI50 up to about 1.1 µM and inactive = higher.

Legend:
Test in all cases: NCI anticancer screen, dose series, 48 h
PC-3 = tested on: PC-3
SK-MEL-2 = tested on: SK-MEL-2
MCF7 = tested on: MCF7
BT-549 = tested on: BT-549
SF-268 = tested on: SF-268
A498 = tested on: A498
COLO 205 = tested on: COLO 205
NCI-H226 = tested on: NCI-H226
HCC 2998 = tested on: HCC 2998
HT-29 = tested on: HT-29
MDA-N = tested on: MDA-N
CCRF-CEM = tested on: CCRF-CEM
CAKI-1 = tested on: CAKI-1
Malme-3M = tested on: Malme-3M
SW-620 = tested on: SW-620
SR = tested on: SR
HCT-116 = tested on: HCT-116
IGROV-1 = tested on: IGROV-1
K562 = tested on: K562
SK-MEL-28 = tested on: SK-MEL-28

SMILES	GI50 (PC-3)	GI50 (SK-MEL-2)	GI50 (MCF7)	GI50 (BT-549)	GI50 (SF-268)	GI50 (A498)	GI50 (COLO 205)	GI50 (NCI-H226)	GI50 (HCC 2998)	GI50 (HT-29)	GI50 (MDA-N)	GI50 (CCRF-CEM)	GI50 (CAKI-1)	GI50 (Malme-3M)	GI50 (SW-620)	GI50 (SR)	GI50 (HCT-116)	GI50 (IGROV-1)	GI50 (K562)	GI50 (SK-MEL-28)
C[C@]12Cc3cnc(-c4ccccc4)nc3C[C@@H]1CC[C@@H]1[C@@H]2CC[C@@]2(C)[C@H]1CC[C@]2(C)O	13.9 µM (inactive)	21 µM (inactive)	19.3 µM (inactive)	23 µM (inactive)	12.9 µM (inactive)	16.3 µM (inactive)	11.7 µM (inactive)	26.1 µM (inactive)	14.2 µM (inactive)	4.15 µM (inactive)	16.4 µM (inactive)	13.9 µM (inactive)	4.98 µM (inactive)	18.9 µM (inactive)	21.2 µM (inactive)	6.59 µM (inactive)	17.4 µM (inactive)	19.7 µM (inactive)	2.96 µM (inactive)	18.6 µM (inactive)
O=C1C2C=CC1C1C(=O)OC(=O)C21 (stereo not given)	> 100 µM (inactive)	> 100 µM (inactive)	> 100 µM (inactive)	> 100 µM (inactive)	> 100 µM (inactive)	> 100 µM (inactive)	> 100 µM (inactive)	> 100 µM (inactive)	> 100 µM (inactive)	> 100 µM (inactive)	> 100 µM (inactive)	> 100 µM (inactive)	> 100 µM (inactive)	> 100 µM (inactive)	> 100 µM (inactive)	> 100 µM (inactive)	> 100 µM (inactive)	> 100 µM (inactive)	> 100 µM (inactive)	> 100 µM (inactive)
Clc1cc2c(cc1Cl)CC(NCCN1CCCC1)CC2 (stereo not given)	15.1 µM (inactive)	17.8 µM (inactive)	15.6 µM (inactive)	15 µM (inactive)	15.3 µM (inactive)	13.7 µM (inactive)	3.07 µM (inactive)	15.2 µM (inactive)	2.7 µM (inactive)	4.35 µM (inactive)	3.85 µM (inactive)	26.4 µM (inactive)	15.7 µM (inactive)	10.8 µM (inactive)	18.9 µM (inactive)	10.6 µM (inactive)	12.9 µM (inactive)	15.4 µM (inactive)	10.8 µM (inactive)	10.2 µM (inactive)
CC(CO)[C@H]1OC(=O)C=C2[C@@]13O[C@@H]3[C@H]1OC(=O)[C@@]3(C)[C@H]4O[C@H]4C[C@@]2(C)[C@@H]13 (stereo not given in full)	2.96 µM (inactive)	2.07 µM (inactive)	1.07 µM (active)	2.11 µM (inactive)	0.973 µM (active)	4.1 µM (inactive)	1.58 µM (inactive)	1.27 µM (inactive)	1.65 µM (inactive)	1.19 µM (inactive)	1.32 µM (inactive)	0.5 µM (active)	1.84 µM (inactive)	2.13 µM (inactive)	1.65 µM (inactive)	0.288 µM (active)	1.07 µM (active)	1.5 µM (inactive)	1.17 µM (inactive)	1.83 µM (inactive)
O=[N+]([O-])c1cccc2nc3ccccc3c(NCCCN3CCOCC3)c12	0.0219 µM (active)	0.0194 µM (active)	< 0.0116 µM (active)	0.0273 µM (active)	0.0226 µM (active)	< 0.0146 µM (active)	< 0.01 µM (active)	0.0213 µM (active)	< 0.01 µM (active)	< 0.01 µM (active)	< 0.01 µM (active)	< 0.0199 µM (active)	0.0221 µM (active)	0.0142 µM (active)	< 0.01 µM (active)	< 0.01 µM (active)	< 0.01 µM (active)	0.0217 µM (active)	0.015 µM (active)	0.034 µM (active)
Cc1ccc(-c2nnc(-c3ccc4ccccc4c3)o2)cc1	52.2 µM (inactive)	2.92 µM (inactive)	> 100 µM (inactive)	13.7 µM (inactive)	9.31 µM (inactive)	> 100 µM (inactive)	> 100 µM (inactive)	25.2 µM (inactive)	> 100 µM (inactive)	> 87.9 µM (inactive)	17.5 µM (inactive)	3.55 µM (inactive)	5.19 µM (inactive)	5.38 µM (inactive)	20 µM (inactive)	7.36 µM (inactive)	23.6 µM (inactive)	> 91.2 µM (inactive)	7.26 µM (inactive)	33.3 µM (inactive)
N/C(=N\N=C\c1c[nH]c2ccccc12)Nc1ccccc1	0.201 µM (active)	0.345 µM (active)	0.185 µM (active)	0.527 µM (active)	0.573 µM (active)	0.256 µM (active)	0.188 µM (active)	1.74 µM (inactive)	0.594 µM (active)	0.191 µM (active)	0.0219 µM (active)	0.918 µM (active)	0.519 µM (active)	0.215 µM (active)	0.122 µM (active)	0.955 µM (active)	0.214 µM (active)	0.865 µM (active)	0.278 µM (active)	0.789 µM (active)
N=C(N)c1ccc(/N=N\c2c(O)c(C(=O)Nc3ccccc3)cc3ccccc23)cc1	17.9 µM (inactive)	68.1 µM (inactive)	9.86 µM (inactive)	46 µM (inactive)	19.9 µM (inactive)	> 100 µM (inactive)	29 µM (inactive)	34.8 µM (inactive)	> 37.6 µM (inactive)	18.4 µM (inactive)	35.7 µM (inactive)	2.33 µM (inactive)	> 58.9 µM (inactive)	32.1 µM (inactive)	15.6 µM (inactive)	7.89 µM (inactive)	3.3 µM (inactive)	18.7 µM (inactive)	7.08 µM (inactive)	> 100 µM (inactive)
C[C@]12CC[C@@H]3c4ccc(O)cc4CC[C@H]3[C@@H]1C/C(=C\c1ccc([N+](=O)[O-])cc1)C2=O	37.2 µM (inactive)	44.6 µM (inactive)	52.1 µM (inactive)	> 100 µM (inactive)	52.6 µM (inactive)	> 100 µM (inactive)	> 100 µM (inactive)	71.6 µM (inactive)	73.3 µM (inactive)	18.6 µM (inactive)	49.5 µM (inactive)	53.7 µM (inactive)	> 100 µM (inactive)	67.6 µM (inactive)	> 100 µM (inactive)	65.3 µM (inactive)	37.7 µM (inactive)	> 100 µM (inactive)	99.8 µM (inactive)	> 100 µM (inactive)
C1CSCCCSCCCSCCCSCCCSC1	19 µM (inactive)	20.7 µM (inactive)	24.5 µM (inactive)	33.8 µM (inactive)	33.1 µM (inactive)	36.2 µM (inactive)	13.1 µM (inactive)	25.5 µM (inactive)	38 µM (inactive)	22.9 µM (inactive)	32.3 µM (inactive)	8.55 µM (inactive)	17.7 µM (inactive)	33.3 µM (inactive)	56.5 µM (inactive)	11.4 µM (inactive)	31.2 µM (inactive)	31.1 µM (inactive)	21.4 µM (inactive)	> 100 µM (inactive)
CN(C)c1ccc(/C=C/C(=O)c2ccc(O)cc2)cc1	14.8 µM (inactive)	14 µM (inactive)	4.11 µM (inactive)	6.08 µM (inactive)	15.4 µM (inactive)	17.1 µM (inactive)	14 µM (inactive)	56.4 µM (inactive)	15.1 µM (inactive)	5.21 µM (inactive)	0.935 µM (active)	2.83 µM (inactive)	12.9 µM (inactive)	8.45 µM (inactive)	3.57 µM (inactive)	0.33 µM (active)	3.69 µM (inactive)	10.2 µM (inactive)	1.7 µM (inactive)	4.88 µM (inactive)
O=C(Nc1ccccc1C(=O)O)/C(=C/c1ccccc1)NC(=O)c1ccccc1	> 100 µM (inactive)	> 100 µM (inactive)	> 100 µM (inactive)	> 100 µM (inactive)	> 100 µM (inactive)	> 100 µM (inactive)	> 100 µM (inactive)	> 100 µM (inactive)	> 100 µM (inactive)	> 100 µM (inactive)	> 100 µM (inactive)	> 100 µM (inactive)	> 100 µM (inactive)	> 100 µM (inactive)	> 100 µM (inactive)	> 100 µM (inactive)	> 100 µM (inactive)	> 100 µM (inactive)	> 100 µM (inactive)	> 100 µM (inactive)
